{
  "source": "patent US5994361A",
  "about": "“Substituted purinyl derivatives with immunomodulating activity” (priority 1995, dated 1999)",
  "key": {"spleen cells": {"system": "spleen cells", "test": "Immunophenotyping on spleen cells, combination with 5 Fluorouracil", "format": "in vivo, C57/BLJ6 mice", "details": "5 FU 80 mg/kg alone, N = 4", "description": "(§1) After in vivo drugs analysis, the drugs were evaluated on whole blood for drug stability and toxicity. Furthermore, in vivo/ex vivo analysis was performed on normal and cyclophosphamide immunosuppressed animals plus 5Fu-treated animals. Cell immunophenotyping was performed on mouse-treatedblood and spleen. The following cell surface antigens were analyzed:\n(§2) CD3 (all T cells), CD4 (T helper/inducer, binds class II-restricted T cells), CD8a (cytotoxic T cells, CTL adhesion), CD11a (T, B, NK, some stem cells, CTL adhesion anti LFA-1α), MAC-1 (monocyte/macrophage), NK (natural killer cells), Ly5 (B cells), CD45 (all leukocytes, protein tyrosine phosphates), and TCR (T cell receptor).\n(§3) C57/BLJ6 mice (6-8 weeks old) were injected daily for 4 consecutive days, sacrificed at day 5 and immunophenotyping was performed on blood and spleen cells.\n(§4) The cells were washed twice in PBS, resuspended in 1 ml of RPMI 2% FBS, and incubated for 45 min. on ice with monoclonal antibody. The cells were washed once, fixed with 1% paraformaldehyde, then analyzed using XL Coulter® counter."}, "[1]": {"system": "MC38 colon adenocarcinoma", "test": "Compound #1 with 5FU against colon adenocarcinoma (Example 95)", "format": "in vivo, C57/BL mice", "description": "C57/BL mice 6-8 weeks old (n=7-9/gr) were injected with 3×10^5 MC38 colon adenocarcinoma cells s.c. on day 0. On day 7, tumor-bearing mice were randomized and injected with 5FU at 20 mg/kg either alone or in combination with levamisole at 20 mg/kg i.p. or with compound #1 at 25 and 50 mg/kg i.p. over a four week period. During this period, animals were treated for 5 consecutive days, untreated for 2 days, and treated again for 5 consecutive days per week for 4 weeks."}, "blood cells [2]": {"system": "blood cells", "test": "Immunophenotyping on blood cells, combination with 5 Fluorouracil", "format": "in vivo, C57/BLJ6 mice", "details": "5 FU 80 mg/kg alone, N = 4", "description": "as §1, §2, §3, §4"}, "virus": {"system": "virus", "details": "cited from earlier work"}, "[3]": {"details": "cited from earlier work"}, "immune system": {"system": "immune system", "details": "prior art; cited from earlier work"}, "DA-3 mammary carcinoma [4]": {"system": "DA-3 mammary carcinoma", "test": "Compound #1 with Cytoxan 28 mg/kg against DA-3 mammary carcinoma, tumor sizes (Example 94)", "format": "in vivo, Balb/c mice", "parameters": "key: tumor volume = length × width²/2", "description": "(§5) Parameters of effect were measured by inhibition of tumor outgrowth and growth rate [tumors measured along the longest axis (length) and the perpendicular shortest axis (width) and the tumor volumes (T.V.±S.E.) was calculated by the formula T.V.=length (cm)×(width cm)^2 /2.] assessment of body weight loss.\n(§6) In another experiment, the CTX treatment was prolonged. Balb/c mice were injected s.c. with 5×10^5 DA-3 tumor cells at day 0. At day 4 when established tumors appeared, tumor-bearing animals were randomized (n=11/gr.) and injected with CTX (at 28 mg/kg) i.v. bolus injections at days 4, 11, and 18. […]"}, "DA-3 mammary carcinoma [5]": {"system": "DA-3 mammary carcinoma", "test": "Tumor outgrowth of breast carcinoma, with cyclophosphamide (Example 92)", "format": "in vivo, Balb/C mice", "details": "CY 100 mg/kg", "description": "Balb/C Mice (n-5/Gr) were used along with DA-3 mammary carcinoma cell line. The mice were treated from -2 to 13 days. Animals were monitored for tumor takes/tumor size and body weights for three weeks from Day 0 until Day 21. D0 was the day of tumor cell inoculation and D21 was the day of experiment termination.\nas §5\nThe statistical significance of difference between tumor takes and tumor sizes of control-untreated and drug-treated groups is estimated using the Chi-square and Student's t tests respectively with significance determined at n<0.05.\nThe mice were divided into the following 5 groups:\nGr.1--Normal Saline (0.2 ml/mouse i.p. starting at D2)\nGr.2--CY (100 mg/kg single bolus i.v. at D0)\nGr.3--Compound #1 (25 mg/kg i.p. starting at D2)\nGr.4--Compound #1 (50 mg/kg i.p. starting at D2)\nGr.5--CY (100 mg/kg i.v. at D0+compound #1 50 mg/kg i.p. starting at D2)"}, "blood cells [6]": {"system": "blood cells", "test": "Immunophenotyping on blood cells, combination with cyclophosphamide", "format": "in vivo, C57/BLJ6 mice", "details": "cyclophosphamide 100 mg/kg alone, N = 4", "description": "as §1, §2, §3, §4"}, "[7]": {"test": "Body weight, compound #1 with Cytoxan 28 mg/kg (Example 94)", "format": "in vivo, Balb/c mice", "parameters": "body weight: unit not given here", "description": "as §6"}, "[8]": {"details": "single agent (CTX 28 mg/kg days 4, 11, 18, or BCH-1393 50 mg/kg days 3-28), day 4"}, "[9]": {"details": "single agent (CTX 28 mg/kg or BCH-1393 50 mg/kg), day 7"}, "[10]": {"details": "single agent (CTX 28 mg/kg or BCH-1393 50 mg/kg), day 9"}, "[11]": {"details": "single agent (CTX 28 mg/kg or BCH-1393 50 mg/kg), day 11"}, "[12]": {"details": "single agent (CTX 28 mg/kg or BCH-1393 50 mg/kg), day 14"}, "[13]": {"details": "single agent (CTX 28 mg/kg or BCH-1393 50 mg/kg), day 16"}, "[14]": {"details": "single agent (CTX 28 mg/kg or BCH-1393 50 mg/kg), day 18"}, "[15]": {"details": "single agent (CTX 28 mg/kg or BCH-1393 50 mg/kg), day 21"}, "[16]": {"details": "single agent (CTX 28 mg/kg or BCH-1393 50 mg/kg), day 23"}, "[17]": {"details": "single agent (CTX 28 mg/kg or BCH-1393 50 mg/kg), day 25"}, "[18]": {"details": "single agent (CTX 28 mg/kg or BCH-1393 50 mg/kg), day 28"}, "[19]": {"details": "single agent (CTX 28 mg/kg or BCH-1393 50 mg/kg), day 30"}},
  "data": [
    {"compound": "O=c1[nH]cc(F)c(=O)[nH]1", "note": "[5 FU, 5-fluorouracil, reference compound]", "values": [
      {"measurement": "CD4+ CD45- (mean)", "setting": "spleen cells", "value": 10.0},
      {"measurement": "NK+ (mean)", "setting": "spleen cells", "value": 4.22},
      {"measurement": "anti-tumor response", "setting": "[1]; 5FU 20 mg/kg alone", "value": "moderate anti-tumor response"},
      {"measurement": "CD8+ CD45+ (mean)", "setting": "blood cells [2]", "value": 6.66},
      {"measurement": "NK+ (mean)", "setting": "blood cells [2]", "value": 3.24}
    ]},
    {"compound": "Nc1nc2c(ccn2[C@@H]2O[C@H](CO)[C@@H](O)[C@H]2O)c(=O)[nH]1", "note": "[7-deazaguanosine]", "values": [
      {"measurement": "immunostimulatory and antiviral activity", "setting": "virus; after oral administration, preliminary", "value": "significant immunostimulatory and antiviral activity after oral administration"}
    ]},
    {"compound": "Nc1nc2c(sc(=O)n2[C@@H]2O[C@H](CO)[C@@H](O)[C@H]2O)c(=O)[nH]1", "note": "[7-thia-8-oxoguanosine]", "values": [
      {"measurement": "oral bioavailability", "setting": "[3]", "value": "lack of oral bioavailability"},
      {"measurement": "antiviral results", "setting": "virus; humans", "value": "few encouraging results"},
      {"measurement": "immunomodulating activity", "setting": "immune system", "value": "activate NK and B cells in the immune system, and to induce interferon"}
    ]},
    {"compound": "c1ccc([C@H]2CN3CCSC3=N2)cc1", "note": "[Levamisole, levamisole]", "values": [
      {"measurement": "anti-tumor response", "setting": "[1]; 5FU 20 mg/kg plus Levamisole 20 mg/kg", "value": "moderate anti-tumor response"},
      {"measurement": "adverse effect", "setting": "[3]; adjuvant levamisole therapy for malignant melanoma", "value": "induces serious thrombocytopenia"}
    ]},
    {"compound": "O=P1(N(CCCl)CCCl)NCCCO1", "note": "(stereo not shown) [cyclophosphamide, reference compound]", "values": [
      {"measurement": "tumor size", "setting": "DA-3 mammary carcinoma [4]; [8]", "value": 4.2},
      {"measurement": "tumor size", "setting": "DA-3 mammary carcinoma [4]; [9]", "value": 10.5},
      {"measurement": "tumor size", "setting": "DA-3 mammary carcinoma [4]; [10]", "value": 18.6},
      {"measurement": "tumor size", "setting": "DA-3 mammary carcinoma [4]; [11]", "value": 30.7},
      {"measurement": "tumor size", "setting": "DA-3 mammary carcinoma [4]; [12]", "value": 50.6},
      {"measurement": "tumor size", "setting": "DA-3 mammary carcinoma [4]; [13]", "value": 54.5},
      {"measurement": "tumor size", "setting": "DA-3 mammary carcinoma [4]; [14]", "value": 63.4},
      {"measurement": "tumor size", "setting": "DA-3 mammary carcinoma [4]; [15]", "value": 88.5},
      {"measurement": "tumor size", "setting": "DA-3 mammary carcinoma [4]; [16]", "value": 93.4},
      {"measurement": "tumor size", "setting": "DA-3 mammary carcinoma [4]; [17]", "value": 106.3},
      {"measurement": "tumor size", "setting": "DA-3 mammary carcinoma [4]; [18]", "value": 130.9},
      {"measurement": "tumor size", "setting": "DA-3 mammary carcinoma [4]; [19]", "value": 151.6},
      {"measurement": "Tumor takes", "setting": "DA-3 mammary carcinoma [5]; day 4", "value": "5/5"},
      {"measurement": "Tumor takes", "setting": "DA-3 mammary carcinoma [5]; day 6", "value": "5/5"},
      {"measurement": "Tumor takes", "setting": "DA-3 mammary carcinoma [5]; day 8", "value": "5/5"},
      {"measurement": "Tumor takes", "setting": "DA-3 mammary carcinoma [5]; day 10", "value": "5/5"},
      {"measurement": "CP8+ CD45+ (mean)", "setting": "blood cells [6]", "value": 15.05},
      {"measurement": "body weight", "setting": "[7]; [8]", "value": 19.2},
      {"measurement": "body weight", "setting": "[7]; [9]", "value": 19.8},
      {"measurement": "body weight", "setting": "[7]; [10]", "value": 19.8},
      {"measurement": "body weight", "setting": "[7]; [11]", "value": 19.9},
      {"measurement": "body weight", "setting": "[7]; [12]", "value": 19.2},
      {"measurement": "body weight", "setting": "[7]; [13]", "value": 19.7},
      {"measurement": "body weight", "setting": "[7]; [14]", "value": 19.6},
      {"measurement": "body weight", "setting": "[7]; [15]", "value": 19.8},
      {"measurement": "body weight", "setting": "[7]; [16]", "value": 19.7},
      {"measurement": "body weight", "setting": "[7]; [17]", "value": 20.1},
      {"measurement": "body weight", "setting": "[7]; [18]", "value": 20.3},
      {"measurement": "body weight", "setting": "[7]; [19]", "value": 20.4}
    ]}
  ]
}
